Data: paper PMC5737116, “Biochemical Properties of Human D-Amino Acid Oxidase” (Frontiers in Molecular Biosciences, 2017)
“Also recorded” adds a separate entry of the source. Like-named read-outs stand apart in the source and are kept apart here. One block for each molecule: values may come before it.

Experiments:
hDAAO [1] = target: T1, hDAAO (Homo sapiens, UniProt P14920); details: cited from earlier work
T1 construct: made in house; host or cells: E. coli

hDAAO apoprotein [2] = target: T2, hDAAO apoprotein (Homo sapiens, UniProt P14920); details: cited from earlier work
T2 construct: made in house; host or cells: E. coli
T2 sequence (P14920 whole entry): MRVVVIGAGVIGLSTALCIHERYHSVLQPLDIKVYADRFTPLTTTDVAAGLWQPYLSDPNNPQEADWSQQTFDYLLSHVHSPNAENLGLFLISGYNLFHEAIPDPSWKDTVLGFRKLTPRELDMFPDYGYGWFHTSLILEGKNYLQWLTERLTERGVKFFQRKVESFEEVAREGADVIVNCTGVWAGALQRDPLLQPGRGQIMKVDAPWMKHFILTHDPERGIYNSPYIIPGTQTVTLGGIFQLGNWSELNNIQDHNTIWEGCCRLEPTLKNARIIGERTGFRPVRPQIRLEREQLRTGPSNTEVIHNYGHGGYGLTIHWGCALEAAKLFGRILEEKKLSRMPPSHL

hDAAO [3] = target: T1, hDAAO; experiment: Oxygen-consumption activity assay, apparent kinetic parameters (substrate specificity); type: biochemical; details: for kcat / Km: apparent, 21% oxygen saturation, pH 8.5, 25°C; for oxidation by hDAAO: at 100 and 500 mM final concentration
hDAAO [4] = target: T1, hDAAO; experiment: Modulation of hDAAO activity, standard activity assay; type: biochemical; details: for effect on hDAAO activity on D-alanine: D-alanine 2 or 28 mM, simultaneous 10 mM magnesium ions and 10 μM nucleotide
Procedure: The effect of MgCl2 and CaCl2 (1 or 10 mM), of 10 μM ATP or GTP and of both divalent ions and nucleotides was assessed using the standard activity assay.

hDAAO holoenzyme [5] = target: T3, hDAAO holoenzyme (Homo sapiens, UniProt P14920); experiment: Far-UV CD spectrum of hDAAO in the presence of ions and nucleotides; details: 1 or 10 mM
T3 construct: made in house; host or cells: E. coli
T3 sequence (P14920 whole entry): as above
Procedure: Circular dichroism (CD) spectra were recorded using a Jasco J-815 spectropolarimeter (Jasco Co., Cremella, Italy) in 10 mM Tris-HCl, pH 8.0, 1% (v/v) glycerol, and 40 μM FAD. The cell path length was 0.1 cm for measurements in the 200- to 250-nm region (0.1 mg protein/mL) and 1 cm for measurements in the 250–350 nm range (0.4 mg protein/mL) (Caldinelli et al., [2010]).

hDAAO holoenzyme [6] = target: T3, hDAAO holoenzyme; experiment: Ligand binding to hDAAO, protein fluorescence quenching; details: for Kd: 15°C
hDAAO [7] = target: T1, hDAAO; experiment: Reduction of FAD following anaerobic addition of L-amino acid; type: biochemical
Procedure: The ability of L-serine to bind at the hDAAO active site like the corresponding D-enantiomer is further confirmed by the observed reduction of FAD following anaerobic addition of the L-amino acid: 14 μM of hDAAO was reduced by 1 mM L-serine in >60 min.

hDAAO apoprotein [8] = target: T2, hDAAO apoprotein; experiment: FAD binding to hDAAO apoprotein, protein fluorescence quenching; details: 15°C
Procedure: Protein fluorescence spectra were measured at 1 μM protein concentration (0.04 mg/mL) in 20 mM Tris-HCl buffer, pH 8.0, 100 mM NaCl, 10% (v/v) glycerol, 5 mM 2-mercaptoethanol, and 40 μM FAD for the holoenzyme and in 50 mM sodium pyrophosphate, pH 8.3 for the apoprotein; spectra were recorded using a Jasco FP-750 instrument and were corrected for the buffer contribution. Protein fluorescence spectra were recorded between 300 and 400 nm, with excitation at 280 nm. […] In all cases, Kd-values were determined using an hyperbolic plot.

hDAAO apoprotein [9] = target: T2, hDAAO apoprotein; experiment: Holoenzyme reconstitution, decrease in flavin fluorescence at 528 nm; type: binding
Procedure: The holoenzyme reconstitution process was also investigated by adding increasing concentrations of apoprotein to ~1 μM of FAD and following the decrease in flavin fluorescence at 528 nm (excitation at 450 nm).

hDAAO [10] = target: T1, hDAAO; details: following enzyme inactivation; ref Kawazoe et al., 2006; cited from earlier work
hDAAO [11] = target: T1, hDAAO; details: cited from earlier work; remark: listed apart in the source
hDAAO [12] = target: T1, hDAAO; experiment: Inhibition of D-serine oxidation by L-serine; type: biochemical
[13] = at pH 8.3, ref Kawazoe et al., 2007b
[14] = apparent, 21% oxygen saturation, pH 8.5, 25°C, ref Molla et al., 2006
[15] = value in brackets, ref Raibekas et al., 2000
[16] = apparent, 21% oxygen saturation, pH 8.5, 25°C, ref Frattini et al., 2011

T1 sequence (P14920 whole entry): as above

Compound: N[C@H](Cc1ccc(O)cc1)C(=O)O [D-Tyrosine]
Km (hDAAO [1]; [13]): 1100 µM
kcat (hDAAO [1]; [13]): 14.8 s⁻¹

Compound: CN(C)CCCN1c2ccccc2Sc2ccc(Cl)cc21 [chlorpromazine]
competition with FAD for the binding to hDAAO apoprotein (hDAAO apoprotein [2]; ref Iwana et al., 2008, Sacchi et al.): compete with FAD

specific activity (hDAAO [3]; saturating D-alanine concentration (28 mM), 25°C, pH 8.5, 200 μM FAD): 9.5 U/mg protein
Compound: C[C@@H](N)C(=O)O [D-Alanine]
Km (hDAAO [1]; [14]): 1300 ± 200 µM
kcat (hDAAO [1]; [14]): 5.2 ± 0.1 s⁻¹
Km (hDAAO [1]; [15]): 1000 µM
kcat (hDAAO [1]; [15]): 10 s⁻¹

effect on hDAAO activity on D-alanine (hDAAO [4]): not modified
Compound: Nc1nc2c(ncn2[C@@H]2O[C@H](COP(=O)(O)OP(=O)(O)OP(=O)(O)O)[C@@H](O)[C@H]2O)c(=O)[nH]1 [GTP]

effect on far-UV CD spectrum / protein conformation (hDAAO holoenzyme [5]): slightly modified
Compound: [Ca+2] [calcium ions]

Compound: N[C@H](Cc1ccc(O)c(O)c1)C(=O)O [D-DOPA, 3,4-dihydroxyphenylalanine]
Ki (hDAAO [3]): 41300 µM
kcat (hDAAO [3]): ~ 40 s^−1
Km (hDAAO [3]; read-out: Km): 6000 ± 1300 µM
Km (hDAAO [1]; [13]): 1500 µM
kcat (hDAAO [1]; [13]): 21.7 s⁻¹
Ki (hDAAO [1]; substrate inhibition effect, at pH 8.3, ref Kawazoe et al., 2007b): 500 µM

Km (hDAAO [3]): b. d.
kcat (hDAAO [3]): b. d.
oxidation by hDAAO (hDAAO [3]): not oxidized
change in protein fluorescence (hDAAO holoenzyme [6]; up to 50 mM): no change
reduction of FAD following anaerobic addition (hDAAO [7]; compared with L-serine, not shown): not
Compound: CN[C@H](CC(=O)O)C(=O)O [N-Methyl-D-aspartate]

Compound: N[C@H](Cc1c[nH]c2ccccc12)C(=O)O [D-Tryptophan]
Km (hDAAO [1]; [16]): 1500 ± 100 µM
kcat (hDAAO [1]; [16]): 3.2 ± 0.1 s⁻¹

Compound: N[C@H](CO)C(=O)O [D-Serine]
Km (hDAAO [1]; [14]): 7500 ± 500 µM
kcat (hDAAO [1]; [14]): 3.0 ± 0.1 s⁻¹
Km (hDAAO [1]; [13]): 3900 µM
kcat (hDAAO [1]; [13]): 4 s⁻¹
Km (hDAAO [1]; [15]): 1000 µM

Kd (hDAAO apoprotein [8]; 7 μM benzoate, read-out: Kd, first phase): 0.43 ± 0.02 µM
Kd (hDAAO apoprotein [8]; 7 μM benzoate, read-out: Kd, second phase): 19.1 ± 2.8 µM
Kd (hDAAO apoprotein [8]; 70 μM benzoate, read-out: Kd, single saturation): 0.48 ± 0.02 µM
Kd (hDAAO apoprotein [8]; absence of active-site ligand, read-out: Kd, first phase): 0.43 ± 0.02 µM
Kd (hDAAO apoprotein [8]; absence of active-site ligand, read-out: Kd, second phase): > 30 µM
Kd (hDAAO apoprotein [9]; 70 μM benzoate, monophasic, read-out: Kd): 0.4 ± 0.04 µM
Kd (hDAAO apoprotein [9]; absence of benzoate, ~1 μM FAD titrated with apoprotein, read-out: Kd, 1): 0.67 ± 0.07 µM
Kd (hDAAO apoprotein [9]; absence of benzoate, ~1 μM FAD titrated with apoprotein, read-out: Kd, 2): 4 ± 0.9 µM
Compound: Cc1cc2nc3c(=O)[nH]c(=O)nc-3n(C[C@H](O)[C@H](O)[C@H](O)COP(=O)(O)OP(=O)(O)OC[C@H]3O[C@@H](n4cnc5c(N)ncnc54)[C@H](O)[C@@H]3O)c2cc1C [FAD]
fold tighter interaction with FAD in the presence of an active site ligand (hDAAO apoprotein [2]; active site ligand such as benzoate, ref Molla et al., 2006): 20 fold
Kd (hDAAO apoprotein [2]; benzoate binding, ref Molla et al., 2006, Caldinelli et al., 2010, read-out: Kd, flavin interaction with benzoate bound): 0.3 µM
Kd (hDAAO apoprotein [2]; interaction with the flavin cofactor, ref Molla et al., 2006, read-out: Kd): 8 µM

Compound: N[C@H](CCC(=O)O)C(=O)O [D-Glutamate]
Km (hDAAO [3]): b. d.
kcat (hDAAO [3]): b. d.
oxidation by hDAAO (hDAAO [3]): not oxidized
change in protein fluorescence (hDAAO holoenzyme [6]; up to 50 mM): no change

kcat (hDAAO [3]): 0.09 ± 0.01 s⁻¹
Km (hDAAO [3]; read-out: Km): 700 ± 400 µM
Compound: Nc1ccccc1C(=O)C[C@@H](N)C(=O)O [D-Kynurenine]

Compound: N[C@H](Cc1ccccc1)C(=O)O [D-Phenylalanine]
Km (hDAAO [1]; [16]): 2700 ± 200 µM
kcat (hDAAO [1]; [16]): 6.6 ± 0.1 s⁻¹
Km (hDAAO [1]; [13]): 1200 µM
kcat (hDAAO [1]; [13]): 15.5 s⁻¹

effect on hDAAO activity (hDAAO [4]; 1 or 10 mM final concentration): do not modify
effect on far-UV CD spectrum / protein conformation (hDAAO holoenzyme [5]): do not modify
Compound: [Mg+2] [magnesium ions]

Compound: CC(=O)N[C@@H](CS)C(=O)O [L-NAC, N-acetyl-L-cysteine]
effect on hDAAO activity (hDAAO [4]; 1 or 10 mM, even when added 60 min before the assay): does not affect; also recorded: not altered

Kd (hDAAO holoenzyme [6]; higher ligand concentrations, ~80% of fluorescence change, read-out: Kd, second saturation): 2590 ± 680 µM
Kd (hDAAO holoenzyme [6]; low benzoate concentrations (≤ 20 μM), read-out: Kd, first saturation): 0.33 ± 0.04 µM
Compound: O=C(O)c1ccccc1 [benzoate]
Ki (hDAAO [10]): 7 µM
Kd (hDAAO [11]; CD signal at ~270 nm, ref Caldinelli et al., 2010): 9.5 µM
Kd (hDAAO [11]; formation of a shoulder at 484 nm in the absorbance spectrum, ref Raibekas et al., 2000, Molla et al., 2006): 5 to 7 µM

type of inhibition (hDAAO [12]; D-serine oxidation at increasing L-serine concentrations): competitive inhibitor
Ki (hDAAO [12]; competitive versus D-serine): 26200 µM
time for reduction of hDAAO flavin (hDAAO [7]; 14 μM hDAAO, 1 mM L-amino acid, anaerobic): > 60 min
Compound: N[C@@H](CO)C(=O)O [L-serine]

Compound: Nc1ncnc2c1ncn2[C@@H]1O[C@H](COP(=O)(O)OP(=O)(O)OP(=O)(O)O)[C@@H](O)[C@H]1O [ATP]
change in protein fluorescence (hDAAO holoenzyme [6]; up to 20 mM): no change
effect on hDAAO activity on D-alanine (hDAAO [4]): not modified

apparent Km, fold higher than physiological concentration (hDAAO [3]): ~ 1,000 fold
change in protein fluorescence (hDAAO holoenzyme [6]; up to 50 mM): no change
Compound: NCC(=O)O [Glycine]
kcat (hDAAO [1]; [14]): ~ 0.9 s^−1

Compound: O=C(O)[C@H]1CCCN1 [D-Proline]
Km (hDAAO [1]; [14]): 8500 ± 1000 µM
kcat (hDAAO [1]; [14]): 10.2 ± 0.1 s⁻¹

Compound: N[C@H](CC(=O)O)C(=O)O [D-Aspartate]
kcat (hDAAO [1]; [14]): 6.7 ± 1.2 s⁻¹
kcat (hDAAO [1]; apparent, 21% oxygen saturation, pH 8.5, 25°C, ref Molla et al., 2006, listed as D-aspartate): 6.7 s⁻¹
